What was measured:
EGFR (L858R T790M C797S) = biological target: T1, EGFR (L858R T790M C797S) (Homo sapiens, UniProt P00533, C797S/L858R/T790M); assay: Biochemical EGFR inhibition assay (Caliper mobility shift), EGFR LRTMCS; settings: LRTMCS (PH) IC50 (nM) @ 1 mM ATP (Num), EGFR LRTMCS mutant
T1 construct: purchased SignalChem E10-122VG
In short: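 Each enzyme was allowed to phosphorylate 10–20% of its peptide at 25° C. before EDTA (35 mM) quench. Separated substrate and product peaks were measured by mobility shift, giving apparent IC50 values.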

[1] = biological target: T2, intracellular phosphorylation of EGFR in NCI-H1975 cell line that harbors the EGFR L858R T790M mutations (Homo sapiens, UniProt P00533, L858R/T790M); assay: NCI-H1975 pEGFR AlphaLISA assay; format: cell-based; settings: NCI-H1975 cells (EGFR L858R T790M), p-EGFR (Tyr1068), 4-5 hours incubation; read-out: Ext pEGFR H1975 GMean IC50 (nM) Protocol: @Pharmaron AlphaLISA (Num)
T2 construct: NCI-H1975 cell line that harbors the EGFR L858R T790M mutations (ATCC, CRL-5908); host or cells: NCI-H1975
T2 sequence (P00533 25-1210 T790M/L858R): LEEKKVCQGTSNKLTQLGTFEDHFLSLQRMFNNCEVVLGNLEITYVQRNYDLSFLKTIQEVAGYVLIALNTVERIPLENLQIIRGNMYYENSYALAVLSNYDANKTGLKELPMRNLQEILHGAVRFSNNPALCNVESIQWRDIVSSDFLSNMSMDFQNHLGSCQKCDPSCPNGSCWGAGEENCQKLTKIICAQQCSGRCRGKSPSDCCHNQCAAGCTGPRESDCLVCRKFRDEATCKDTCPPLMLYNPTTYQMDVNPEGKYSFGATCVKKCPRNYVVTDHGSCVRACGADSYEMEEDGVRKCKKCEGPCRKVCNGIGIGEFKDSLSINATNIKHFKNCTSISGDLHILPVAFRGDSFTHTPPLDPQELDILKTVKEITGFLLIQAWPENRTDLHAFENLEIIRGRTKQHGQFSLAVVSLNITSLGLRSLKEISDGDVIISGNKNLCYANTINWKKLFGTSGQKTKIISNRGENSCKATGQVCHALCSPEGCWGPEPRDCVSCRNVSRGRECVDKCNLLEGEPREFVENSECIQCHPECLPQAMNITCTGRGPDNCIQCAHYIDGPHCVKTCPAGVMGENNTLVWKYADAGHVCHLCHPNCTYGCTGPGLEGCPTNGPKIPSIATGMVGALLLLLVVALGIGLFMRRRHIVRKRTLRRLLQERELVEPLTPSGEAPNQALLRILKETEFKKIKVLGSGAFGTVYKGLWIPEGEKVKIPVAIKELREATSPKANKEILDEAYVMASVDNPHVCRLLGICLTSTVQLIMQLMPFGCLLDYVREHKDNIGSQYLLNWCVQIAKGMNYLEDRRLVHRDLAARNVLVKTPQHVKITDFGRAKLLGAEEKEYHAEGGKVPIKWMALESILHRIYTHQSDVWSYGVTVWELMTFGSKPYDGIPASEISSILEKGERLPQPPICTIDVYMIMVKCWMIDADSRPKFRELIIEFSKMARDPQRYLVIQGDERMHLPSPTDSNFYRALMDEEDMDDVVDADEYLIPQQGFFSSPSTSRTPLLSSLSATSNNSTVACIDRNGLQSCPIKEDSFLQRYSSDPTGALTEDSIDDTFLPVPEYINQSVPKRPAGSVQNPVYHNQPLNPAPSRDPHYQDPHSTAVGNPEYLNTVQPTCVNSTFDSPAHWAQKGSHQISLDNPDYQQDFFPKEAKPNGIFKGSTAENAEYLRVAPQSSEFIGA
Description: On the next day, the test compounds and DMSO control were added into H1975 cell plate followed by incubation at 37C/5% CO2 for 4-5 hours. […] Then 5 μL of a donor bead mix was added to each well followed by overnight incubation at room temperature in dark. On the next day, the plate was read at a compatible plate reader to obtain pEGFR signal. Percent of pEGFR inhibition was plotted against log concentration of compounds to generate IC50 values.

T1 sequence (P00533 25-1210 T790M/C797S/L858R): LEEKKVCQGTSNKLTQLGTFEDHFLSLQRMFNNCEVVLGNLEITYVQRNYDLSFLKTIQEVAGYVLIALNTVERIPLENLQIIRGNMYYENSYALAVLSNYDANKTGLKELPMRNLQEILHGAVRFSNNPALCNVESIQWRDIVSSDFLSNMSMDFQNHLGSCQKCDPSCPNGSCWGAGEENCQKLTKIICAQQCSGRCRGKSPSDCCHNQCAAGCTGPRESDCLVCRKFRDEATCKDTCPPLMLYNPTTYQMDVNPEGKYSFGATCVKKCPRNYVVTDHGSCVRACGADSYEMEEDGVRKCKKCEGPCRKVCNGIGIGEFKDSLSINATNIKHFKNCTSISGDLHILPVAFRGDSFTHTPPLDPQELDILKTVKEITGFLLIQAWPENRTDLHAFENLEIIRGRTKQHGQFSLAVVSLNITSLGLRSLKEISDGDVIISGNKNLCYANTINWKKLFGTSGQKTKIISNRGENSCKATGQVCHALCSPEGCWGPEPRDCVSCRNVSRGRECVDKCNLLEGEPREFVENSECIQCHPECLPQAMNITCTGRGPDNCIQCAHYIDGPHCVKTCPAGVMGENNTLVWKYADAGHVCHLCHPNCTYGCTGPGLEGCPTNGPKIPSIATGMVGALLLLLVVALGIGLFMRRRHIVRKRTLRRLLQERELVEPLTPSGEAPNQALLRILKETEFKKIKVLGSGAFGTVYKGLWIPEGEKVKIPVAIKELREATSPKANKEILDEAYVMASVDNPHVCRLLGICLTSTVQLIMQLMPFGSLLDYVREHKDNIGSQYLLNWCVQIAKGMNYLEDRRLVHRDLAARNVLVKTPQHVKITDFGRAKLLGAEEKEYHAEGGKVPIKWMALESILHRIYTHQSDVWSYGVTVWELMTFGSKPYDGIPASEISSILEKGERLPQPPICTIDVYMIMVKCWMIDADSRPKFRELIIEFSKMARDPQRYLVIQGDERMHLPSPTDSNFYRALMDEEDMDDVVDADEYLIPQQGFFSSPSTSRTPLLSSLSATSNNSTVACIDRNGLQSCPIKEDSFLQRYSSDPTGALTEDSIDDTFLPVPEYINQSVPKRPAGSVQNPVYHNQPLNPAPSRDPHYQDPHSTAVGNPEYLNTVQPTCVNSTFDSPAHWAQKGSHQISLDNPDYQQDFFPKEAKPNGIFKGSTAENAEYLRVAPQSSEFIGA

## CO[C@H]1CCN(c2nccc(Nc3cc4c(C(C)C)ccc(N5CC[C@H]5CN)c4cn3)n2)C[C@H]1F [Example 39, 8-((S)-2-(aminomethyl)azetidin-1-yl)-N-(2-((3R,4S)-3-fluoro-4-methoxypiperidin-1-yl)pyrimidin-4-yl)-5-isopropylisoquinolin-3-amine]
EGFR (L858R T790M C797S)
  IC50: < 15 nM
[1]
  IC50: > 50 nM

## CO[C@@H]1CCN(c2nccc(Nc3cc4c(C(C)C)ccc(N5C[C@H](O)[C@H]5C)c4cn3)n2)C[C@@H]1O (single isomer, unassigned) [Example 123, (3S,4R)-1-(4-((8-((2R,3S)-3-hydroxy-2-methylazetidin-1-yl)-5-isopropylisoquinolin-3-yl)amino)pyrimidin-2-yl)-4-methoxypiperidin-3-ol-ol or (3R,4S)-1-(4-((8-((2R,3S)-3-hydroxy-2-methylazetidin-1-yl)-5-isopropylisoquinolin-3-yl)amino)pyrimidin-2-yl)-4-methoxypiperidin-3-ol]
EGFR (L858R T790M C797S)
  IC50: 15 to 20 nM
[1]
  IC50: > 50 nM

## CC(C)c1cnc(N2CCC23CNC3)c2cnc(Nc3ccnc(N4CC[C@@H](O)[C@@](C)(F)C4)n3)cc12 [Example 190, (3S,4R)-3-fluoro-1-(4-((5-isopropyl-8-(1,6-diazaspiro[3.3]heptan-1-yl)-2,7-naphthyridin-3-yl)amino)pyrimidin-2-yl)-3-methylpiperidin-4-ol]
EGFR (L858R T790M C797S)
  IC50: < 15 nM
[1]
  IC50: > 50 nM

## CO[C@@H]1CCN(c2nccc(Nc3cc4c(C(C)C)cnc(N5C[C@H](O)[C@H]5C)c4cn3)n2)C[C@@H]1O (single isomer, unassigned) [Example 122, (3S,4R)-1-(4-((8-((2R,3S)-3-hydroxy-2-methylazetidin-1-yl)-5-isopropyl-2,7-naphthyridin-3-yl)amino)pyrimidin-2-yl)-4-methoxypiperidin-3-ol or (3R,4S)-1-(4-((8-((2R,3S)-3-hydroxy-2-methylazetidin-1-yl)-5-isopropyl-2,7-naphthyridin-3-yl)amino)pyrimidin-2-yl)-4-methoxypiperidin-3-ol]
EGFR (L858R T790M C797S)
  IC50: < 15 nM
[1]
  IC50: 10 to 20 nM

## CC(C)Oc1cnc(N2CC[C@H]2C)c2cnc(Nc3ccnc(N4CC[C@@H](O)[C@@H](F)C4)n3)cc12 [Example 153, (3S,4R)-3-fluoro-1-(4-((5-isopropoxy-8-((R)-2-methylazetidin-1-yl)-2,7-naphthyridin-3-yl)amino)pyrimidin-2-yl)piperidin-4-ol]
EGFR (L858R T790M C797S)
  IC50: 30 to 100 nM
[1]
  IC50: > 50 nM

## CC(C)c1cnc(N2C[C@H](O)[C@H]2C)c2cnc(Nc3ccnc(N4CC[C@](C)(O)[C@](C)(F)C4)n3)cc12 (single isomer, unassigned) [Example 170, (3R,4S)-3-fluoro-1-(4-((8-((2R,3S)-3-hydroxy-2-methylazetidin-1-yl)-5-isopropyl-2,7-naphthyridin-3-yl)amino)pyrimidin-2-yl)-3,4-dimethylpiperidin-4-ol or (3S,4R)-3-fluoro-1-(4-((8-((2R,3S)-3-hydroxy-2-methylazetidin-1-yl)-5-isopropyl-2,7-naphthyridin-3-yl)amino)pyrimidin-2-yl)-3,4-dimethylpiperidin-4-ol]
EGFR (L858R T790M C797S)
  IC50: < 15 nM
[1]
  IC50: 20 to 30 nM

## CO[C@@H]1CCN(c2cc(Nc3cc4c(C(C)C)ccc(N5CC(n6ccnn6)C5)c4cn3)ccn2)C[C@@H]1O (single isomer, unassigned) [Example 126, (3S,4R)-1-(4-((8-(3-(1H-1,2,3-triazol-1-yl)azetidin-1-yl)-5-isopropylisoquinolin-3-yl)amino)pyridin-2-yl)-4-methoxypiperidin-3-ol or (3R,4S)-1-(4-((8-(3-(1H-1,2,3-triazol-1-yl)azetidin-1-yl)-5-isopropylisoquinolin-3-yl)amino)pyridin-2-yl)-4-methoxypiperidin-3-ol]
EGFR (L858R T790M C797S)
  IC50: < 15 nM
[1]
  IC50: 10 to 20 nM

## CC(C)c1ccc(C2CN(S(C)(=O)=O)C2)c2cnc(Nc3ccnc(N4CC[C@@H](O)[C@@](C)(F)C4)n3)cc12 [Example 3, (3S,4R)-3-fluoro-1-(4-((5-isopropyl-8-(1-(methylsulfonyl)azetidin-3-yl)isoquinolin-3-yl)amino)pyrimidin-2-yl)-3-methylpiperidin-4-ol]
EGFR (L858R T790M C797S)
  IC50: < 15 nM
[1]
  IC50: 20 to 30 nM

## C[C@H](CO)c1cnc(N2CC[C@H]2C)c2cnc(Nc3ccnc(N4C[C@@H](F)[C@@H](O)C(C)(C)C4)n3)cc12 (single isomer, unassigned) [Example 188]
EGFR (L858R T790M C797S)
  IC50: < 15 nM
[1]
  IC50: 20 to 30 nM

## CC(C)c1cnc(-c2cn(C3COC3)cn2)c2cnc(Nc3ccnc(N4CC[C@@H](O)[C@@](C)(F)C4)n3)cc12 [Example 20, (3S,4R)-3-fluoro-1-(4-((5-isopropyl-8-(1-(oxetan-3-yl)-1H-imidazol-4-yl)-2,7-naphthyridin-3-yl)amino)pyrimidin-2-yl)-3-methylpiperidin-4-ol]
EGFR (L858R T790M C797S)
  IC50: < 15 nM
[1]
  IC50: 30 to 50 nM

## C[C@H](CO)c1ncc(N2CC[C@H]2C)c2cnc(Nc3ccnc(N4CC[C@@H](O)[C@@](C)(F)C4)n3)cc12 (single isomer, unassigned) [Example 178, (3S,4R)-3-fluoro-1-(4-((5-((S)-1-hydroxypropan-2-yl)-8-((R)-2-methylazetidin-1-yl)-2,6-naphthyridin-3-yl)amino)pyrimidin-2-yl)-3-methylpiperidin-4-ol or (3S,4R)-3-fluoro-1-(4-((5-((R)-1-hydroxypropan-2-yl)-8-((R)-2-methylazetidin-1-yl)-2,6-naphthyridin-3-yl)amino)pyrimidin-2-yl)-3-methylpiperidin-4-ol]
EGFR (L858R T790M C797S)
  IC50: 20 to 30 nM
[1]
  IC50: > 50 nM

## CC(C)c1cnc(N2CC(C)(O)C2)c2cnc(Nc3ccnc(N4CC[C@@H](O)[C@@](C)(F)C4)n3)cc12 [Example 50, (3S,4R)-3-fluoro-1-(4-((8-(3-hydroxy-3-methylazetidin-1-yl)-5-isopropyl-2,7-naphthyridin-3-yl)amino)pyrimidin-2-yl)-3-methylpiperidin-4-ol]
EGFR (L858R T790M C797S)
  IC50: 20 to 30 nM
[1]
  IC50: > 50 nM

## CC(C)c1ncc(-c2ncn(C)n2)c2cnc(Nc3ccnc(N4CC[C@@H](O)[C@@](C)(F)C4)n3)cc12 [Example 6, (3S,4R)-3-fluoro-1-(4-((5-isopropyl-8-(1-methyl-1H-1,2,4-triazol-3-yl)-2,6-naphthyridin-3-yl)amino)pyrimidin-2-yl)-3-methylpiperidin-4-ol]
EGFR (L858R T790M C797S)
  IC50: < 15 nM
[1]
  IC50: > 50 nM

## CC(C)c1cnc(N2CC[C@H](S(C)(=O)=O)C2)c2cnc(Nc3ccnc(N4CC[C@@H](O)[C@@](C)(F)C4)n3)cc12 [Example 75, (3S,4R)-3-fluoro-1-(4-((5-isopropyl-8-((S)-3-(methylsulfonyl)pyrrolidin-1-yl)-2,7-naphthyridin-3-yl)amino)pyrimidin-2-yl)-3-methylpiperidin-4-ol]
EGFR (L858R T790M C797S)
  IC50: 15 to 20 nM
[1]
  IC50: 10 to 20 nM

## CO[C@H]1CCN(c2nccc(Nc3cc4c(C(C)C)cnc(N5CC[C@H]5C)c4cn3)n2)C[C@H]1OCCO (single isomer, unassigned) [Example 167, 2-(((3R,4S)-1-(4-((5-isopropyl-8-((R)-2-methylazetidin-1-yl)-2,7-naphthyridin-3-yl)amino)pyrimidin-2-yl)-4-methoxypiperidin-3-yl)oxy)ethan-1-ol or 2-(((3S,4R)-1-(4-((5-isopropyl-8-((R)-2-methylazetidin-1-yl)-2,7-naphthyridin-3-yl)amino)pyrimidin-2-yl)-4-methoxypiperidin-3-yl)oxy)ethan-1-ol]
EGFR (L858R T790M C797S)
  IC50: < 15 nM
[1]
  IC50: < 10 nM

## CC(C)c1ccc([C@H]2C[C@H](CS(C)(=O)=O)C2)c2cnc(Nc3ccnc(N4CC[C@@H](O)[C@@](C)(F)C4)n3)cc12 [Example 1, (3S,4R)-3-fluoro-1-(4-((5-isopropyl-8-((1r,3S)-3-((methylsulfonyl)methyl)cyclobutyl)isoquinolin-3-yl)amino)pyrimidin-2-yl)-3-methylpiperidin-4-ol]
EGFR (L858R T790M C797S)
  IC50: < 15 nM
[1]
  IC50: < 10 nM

## CC(C)c1cnc(N2C[C@H](O)[C@H]2C)c2cnc(Nc3ccnc(N4CC[C@](C)(O)C(F)(F)C4)n3)cc12 (single isomer, unassigned) [Example 171, (S)-3,3-difluoro-1-(4-((8-((2R,3S)-3-hydroxy-2-methylazetidin-1-yl)-5-isopropyl-2,7-naphthyridin-3-yl)amino)pyrimidin-2-yl)-4-methylpiperidin-4-ol or (R)-3,3-difluoro-1-(4-((8-((2R,3S)-3-hydroxy-2-methylazetidin-1-yl)-5-isopropyl-2,7-naphthyridin-3-yl)amino)pyrimidin-2-yl)-4-methylpiperidin-4-ol]
EGFR (L858R T790M C797S)
  IC50: < 15 nM
[1]
  IC50: 30 to 50 nM

## CC(C)c1cnc(N2C[C@H](O)[C@H]2C)c2cnc(Nc3ccnc(N4CC[C@@](C)(O)[C@@H](F)C4)n3)cc12 (single isomer, unassigned) [Example 172, (3S,4R)-3-fluoro-1-(4-((8-((2R,3S)-3-hydroxy-2-methylazetidin-1-yl)-5-isopropyl-2,7-naphthyridin-3-yl)amino)pyrimidin-2-yl)-4-methylpiperidin-4-ol or (3R,4S)-3-fluoro-1-(4-((8-((2R,3S)-3-hydroxy-2-methylazetidin-1-yl)-5-isopropyl-2,7-naphthyridin-3-yl)amino)pyrimidin-2-yl)-4-methylpiperidin-4-ol]
EGFR (L858R T790M C797S)
  IC50: 15 to 20 nM
[1]
  IC50: > 50 nM
